Target: T1, strychnineinsensitive glycine recognition site (NMDA receptor-ion channel complex) (Rattus norvegicus, UniProt P35439)
T1 construct: Synaptic plasma membranes (SPM) were prepared from rat forebrain; from tissue; host or cells: rat forebrain synaptic plasma membranes
Experiment: Glycine binding assay, [3H]glycine, synaptic plasma membranes
Settings: 10 nM [3H]glycine, pH 7.4, rat forebrain SPM; read-out: Ki apparent, Gly
Protocol: Synaptic plasma membranes (SPM) were prepared from rat forebrain and stored as previously described [J. B. Monahan and J. Michel, J. Neurochem, 48, 1699-1708 (1987)]. Frozen membranes were thawed and diluted 1:20 with 0.04% triton X-100 in 50 mM tris/acetate (pH 7.4). Following incubation at 37° C. for 30 min., the SPM were collected by centrifugation at 95,000 X g for 15 min. The pellet was resuspended in 50 mM tris/acetate (pH 7.4, triton-free) and hand-homogenized five times. The membranes were again centrifuged as above. The pellet was washed two additional times with 50 mM tris/acetate (without homogenization) and centrifuged. The final pellet was resuspended with homogenization in 50 mM tris/acetate.
In the general receptor binding assay procedure, 10 nM [^3 H]glycine was added to the appropriate concentration of the test compounds and the assay initiated by the addition of 0.2-0.4 mg of ice cold SPM. The assay, which was done in 1.5 ml centrifuge tubes, was adjusted to a total volume of 1.0 ml with all additions being made in 50 mM tris/ acetate, pH 7.4 at 4° C. After a 10 minute incubation at 2° C., the samples were centrifuged for 15 min. at 12,000 g (4° C.) in a Beckman Microfuge 12. The supernatant was aspirated and the tube tip containing the pelleted membranes cut off and agitated in 0.5 ml of Beckman BTS-450 tissue solubilizer for a minimum of 6 hours at room temperature. Beckman MP scintillation cocktail (5 ml) containing 7 ml/liter acetic acid was then added and the samples counted on a Beckman LS 5800 liquid scintillation counter with automatic corrections for quenching and counting efficiency. […] The binding of [^3 H]glycine to the SPM was analyzed using Scatchard and Hill transformations and the Ki for other compounds was determined using logit-log analysis. Calculations and regression analysis were performed using templates developed for Lotus 123 as previously described [Pullan et al, Id.].

For `O=C(O)Cc1c(CO)[nH]c2cc(Cl)ccc12`, the Ki was > 30 µM.
In the case of `O=C(O)c1[nH]c2ccccc2c1CCO` [compound 20, 3-(2-hydroxyethyl)indole-2-carboxylic acid], the Ki is reported as > 10 µM.
In the case of `Cc1cc2c(CC(=O)O)c(C(=O)O)[nH]c2cc1Cl` [compound 21, 2-carboxy-6-chloro-5-methylindole-3-acetic acid], the Ki is reported as > 10 µM.
With `CCOC(=O)Cc1c(C(=O)OCC)[nH]c2cc(Cl)ccc12` [compound 22, ethyl 2-carboethoxy-6-chloro-3-indoleacetate] the Ki was > 100 µM.
With `O=C1OCCc2c1[nH]c1ccccc21` [compound 23, 4,9-dihydropyrano[3,4-b]indol-1(3H)-one] the Ki was > 100 µM.
`CC(=O)Cc1c(C(=O)O)[nH]c2ccccc12` [compound 25, 3-(2-oxopropyl)indole-2-carboxylic acid] was tested, and the Ki was > 30 µM.
With `O=C(O)c1cc2c(C(=O)O)cccc2[nH]1` [compound 26, 4-carboxyindole-2-carboxylic acid] the Ki was > 20 µM.
In the case of `O=C(O)c1cc2c(OCc3ccccc3)cccc2[nH]1` [compound 27, 4-benzyloxyindole-2-carboxylic acid], the Ki is reported as > 20 µM.
`O=C(O)c1cc2c(O)cccc2[nH]1` [compound 28, 4-hydroxyindole-2-carboxylic acid] was tested, and the Ki was > 20 µM.
With `O=C(O)Cc1c(C(=O)O)[nH]c2c(Cl)cccc12` [compound 29, 2-carboxy-7-chloroindole-3-acetic acid] the Ki was > 30 µM.
`CCOC(=O)Cc1c(C(=O)OCCCN(C)C)[nH]c2cc(Cl)ccc12` [compound 34, ethyl 2-(3-dimethylaminopropyloxycarbonyl)-6-chloro-3-indole acetate] was tested, and the Ki was > 30 µM.
For `CN(C)C(=O)Cc1c(C(=O)O)[nH]c2cc(Cl)ccc12` [compound 36, 2-carboxy-6-chloro-3-indole acetic acid 3-dimethyl amide], the Ki was > 30 µM.
`O=C(Cc1c(C(=O)O)[nH]c2cc(Cl)ccc12)NCCO` [compound 39, 2-carboxy-6-chloro-3-indoleacetic acid 3-(2-hydroxyethyl)amide] was tested, and the Ki was 11.4 µM.
In the case of `CN(C)CCCNC(=O)Cc1c(C(=O)O)[nH]c2cc(Cl)ccc12` [compound 40, 2-carboxy-6-chloro-3-indoleacetic acid 3-(3-dimethylaminopropyl)amide], the Ki is reported as > 30 µM.
`CCCOC(=O)Cc1c(C(=O)O)[nH]c2cc(Cl)ccc12` [compound 42, propyl 2-carboxy-6-chloro-3-indoleacetate] gave a Ki of 7 µM.
Work on `O=C(Cc1c(C(=O)O)[nH]c2cc(Cl)ccc12)NCCc1ccccc1` [compound 45, 2-carboxy-6-chloro-3-indoleacetic acid 3-phenylethylamide] yielded a Ki of 0.47 µM.
With `CCOC(=O)c1[nH]c2cc(Cl)ccc2c1CCCl` [compound 47, ethyl 6-chloro-3-(2-chloroethyl)-2-indolecarboxylate] the Ki was > 10 µM.
`CCOC(=O)Cc1c(C=O)[nH]c2cc(Cl)ccc12` [compound 51, ethyl 6-chloro-2-formyl-3-indole acetate] was tested, and the Ki was > 30 µM.
With `CCOC(=O)Cc1c(CO)[nH]c2cc(Cl)ccc12` [compound 52, ethyl 6-chloro-2-hydroxymethyl-3-indoleacetate] the Ki was > 30 µM.
In the case of `CN(C)CCNC(=O)Cc1c(C(=O)NCCN(C)C)[nH]c2cc(Cl)ccc12` [compound 54, 2-carboxy-6-chloro-3-indole acetic acid bis-2-dimethyl aminoethylamide], the Ki is reported as > 30 µM.
With `CCOC(=O)c1[nH]c2cc(Cl)ccc2c1CC(N)=O` [compound 55, 2-carboethoxy-6-chloro-3-indoleacetamide] the Ki was > 30 µM.

Source: patent US5229413A, “Compositions containing indole-2-carboxylate compounds for treatment of CNS disorders” (G. D. Searle & Co., priority 1992, dated 1993)
